Measurements from PubChem BioAssay (NCI).
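GI50 = concentration required for 50% inhibition of growth. TGI is the concentration that stops growth completely.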

Assays:
Test in all cases: DTP human tumour cell line panel, 384-well format
OVCAR-5 ovarian = system: OVCAR-5 ovarian
SNB-75 CNS = system: SNB-75 CNS
786-0 renal = system: 786-0 renal
SF-539 CNS = system: SF-539 CNS
K-562 leukemia = system: K-562 leukemia
RXF 393 renal = system: RXF 393 renal
OVCAR-8 ovarian = system: OVCAR-8 ovarian
HCT-15 colon = system: HCT-15 colon
SR leukemia = system: SR leukemia
SK-OV-3 ovarian = system: SK-OV-3 ovarian
HCT-116 colon = system: HCT-116 colon
MDA-MB-231 breast = system: MDA-MB-231 breast
OVCAR-4 ovarian = system: OVCAR-4 ovarian
MOLT-4 leukemia = system: MOLT-4 leukemia
MDA-MB-435 melanoma = system: MDA-MB-435 melanoma
HOP-92 NSCLC = system: HOP-92 NSCLC
HOP-62 NSCLC = system: HOP-62 NSCLC
UO-31 renal = system: UO-31 renal
HT29 colon = system: HT29 colon
HL-60(TB) leukemia = system: HL-60(TB) leukemia
SF-268 CNS = system: SF-268 CNS
MALME-3M melanoma = system: MALME-3M melanoma
NCI-H460 NSCLC = system: NCI-H460 NSCLC
LOX IMVI melanoma = system: LOX IMVI melanoma
BT-549 breast = system: BT-549 breast
ACHN renal = system: ACHN renal
DU-145 prostate = system: DU-145 prostate
A549 NSCLC = system: A549 NSCLC
NCI/ADR-RES ovarian = system: NCI/ADR-RES ovarian
OVCAR-3 ovarian = system: OVCAR-3 ovarian
SK-MEL-2 melanoma = system: SK-MEL-2 melanoma
M14 melanoma = system: M14 melanoma
SN12C renal = system: SN12C renal
SF-295 CNS = system: SF-295 CNS
NCI-H522 lung = system: NCI-H522 lung
HCC-2998 colon = system: HCC-2998 colon
EKVX NSCLC = system: EKVX NSCLC
CAKI-1 renal = system: CAKI-1 renal
PC-3 prostate = system: PC-3 prostate
RPMI-8226 leukemia = system: RPMI-8226 leukemia
SK-MEL-28 melanoma = system: SK-MEL-28 melanoma
COLO 205 colon = system: COLO 205 colon
UACC-62 melanoma = system: UACC-62 melanoma
MCF7 breast = system: MCF7 breast
CCRF-CEM leukemia = system: CCRF-CEM leukemia
SK-MEL-5 melanoma = system: SK-MEL-5 melanoma
MDA-MB-468 breast = system: MDA-MB-468 breast

With `C[C@H](NC(=O)c1c(N)nn2cccnc12)c1cc2cccc(C#Cc3cnn(C)c3)c2c(=O)n1-c1ccccc1` the GI50 (OVCAR-5 ovarian) was 8.39 µM, the TGI (OVCAR-5 ovarian) was 22.2 µM and the GI50 (SNB-75 CNS) was 806 nM. It also gave a TGI (SNB-75 CNS) of 4.38 µM, a GI50 ([…]-0 renal) of 4.91 µM and a TGI (786-0 renal) of 17.2 µM. For the same compound, the GI50 (SF-539 CNS) was 4.67 µM, the TGI (SF-539 CNS) was 17 µM and the GI50 (K-562 leukemia) was 7.56 µM. For the same compound, the TGI (K-562 leukemia) was 20.3 µM, the GI50 (RXF 393 renal) was 1300 nM and the TGI (RXF 393 renal) was 5.68 µM. The GI50 (OVCAR-8 ovarian) was 8.07 µM, the TGI (OVCAR-8 ovarian) was 21.3 µM and the GI50 (HCT-15 colon) was 5.88 µM. The TGI (HCT-15 colon) was 18.7 µM, the GI50 (SR leukemia) was 4.16 µM and the TGI (SR leukemia) was 16.9 µM. The GI50 (SK-OV-3 ovarian) was 2190 nM, the TGI (SK-OV-3 ovarian) was 12.5 µM and the GI50 (HCT-116 colon) was 6.64 µM. For the same compound, the TGI (HCT-116 colon) was 20 µM, the GI50 (MDA-MB-231 breast) was 6.03 µM and the TGI (MDA-MB-231 breast) was 18.3 µM. It also gave a GI50 (OVCAR-4 ovarian) of 11.9 µM, a TGI (OVCAR-4 ovarian) of 25.4 µM and a GI50 (MOLT-4 leukemia) of 847 nM. The TGI (MOLT-4 leukemia) was 2210 nM, the GI50 (MDA-MB-435 melanoma) was 10.6 µM and the TGI (MDA-MB-435 melanoma) was 24.1 µM. The GI50 (HOP-92 NSCLC) was 470 nM, the TGI (HOP-92 NSCLC) was 4.04 µM and the GI50 (HOP-62 NSCLC) was 7.24 µM. The TGI (HOP-62 NSCLC) was 20.4 µM, the GI50 (UO-31 renal) was 3.18 µM and the TGI (UO-31 renal) was 14.1 µM. The GI50 (HT29 colon) was 6.3 µM, the TGI (HT29 colon) was 20 µM and the GI50 (HL-60(TB) leukemia) was 1150 nM. It also gave a TGI (HL-60(TB) leukemia) of 4.94 µM, a GI50 (SF-268 CNS) of 2020 nM and a TGI (SF-268 CNS) of 9.93 µM. For the same compound, the GI50 (MALME-3M melanoma) was 6.62 µM, the TGI (MALME-3M melanoma) was 20.5 µM and the GI50 (NCI-H460 NSCLC) was 3.71 µM. For the same compound, the TGI (NCI-H460 NSCLC) was 16.7 µM, the GI50 (LOX IMVI melanoma) was 2950 nM and the TGI (LOX IMVI melanoma) was 12.7 µM. It also gave a GI50 (BT-549 breast) of 1480 nM, a TGI (BT-549 breast) of 9.11 µM and a GI50 (ACHN renal) of 4.31 µM. The TGI (ACHN renal) was 19.4 µM, the GI50 (DU-145 prostate) was 7.97 µM and the TGI (DU-145 prostate) was 23.8 µM. The GI50 (A549 NSCLC) was 4.45 µM, the TGI (A549 NSCLC) was 17.6 µM and the GI50 (NCI/ADR-RES ovarian) was 5.28 µM. It also gave a TGI (NCI/ADR-RES ovarian) of 16.2 µM, a GI50 (OVCAR-3 ovarian) of 2930 nM and a TGI (OVCAR-3 ovarian) of 14.9 µM. It also gave a GI50 (SK-MEL-2 melanoma) of 12.4 µM, a TGI (SK-MEL-2 melanoma) of 24.9 µM and a GI50 (M14 melanoma) of 11.1 µM. The TGI (M14 melanoma) was 24.9 µM, the GI50 (SN12C renal) was 4.38 µM and the TGI (SN12C renal) was 20 µM. The GI50 (SF-295 CNS) was 4.14 µM, the TGI (SF-295 CNS) was 17.1 µM and the GI50 (NCI-H522 lung) was 4.55 µM. The TGI (NCI-H522 lung) was 18.7 µM, the GI50 (HCC-2998 colon) was 3.75 µM and the TGI (HCC-2998 colon) was 15.1 µM. For the same compound, the GI50 (EKVX NSCLC) was 2600 nM, the TGI (EKVX NSCLC) was 15.3 µM and the GI50 (CAKI-1 renal) was 1280 nM. For the same compound, the TGI (CAKI-1 renal) was 15.7 µM, the GI50 (PC-3 prostate) was 1840 nM and the TGI (PC-3 prostate) was 12.9 µM. It also gave a GI50 (RPMI-8226 leukemia) of 1710 nM, a TGI (RPMI-8226 leukemia) of 3.73 µM and a GI50 (SK-MEL-28 melanoma) of 4.42 µM. For the same compound, the TGI (SK-MEL-28 melanoma) was 17.8 µM, the GI50 (COLO 205 colon) was 8.8 µM and the TGI (COLO 205 colon) was 22.7 µM. It also gave a GI50 (UACC-62 melanoma) of 1540 nM, a TGI (UACC-62 melanoma) of 12.1 µM and a GI50 (MCF7 breast) of 1250 nM. For the same compound, the TGI (MCF7 breast) was 6.84 µM, the GI50 (CCRF-CEM leukemia) was 54.9 nM and the TGI (CCRF-CEM leukemia) was 1780 nM. For the same compound, the GI50 (SK-MEL-5 melanoma) was 5.38 µM, the TGI (SK-MEL-5 melanoma) was 20 µM and the GI50 (MDA-MB-468 breast) was 507 nM. The TGI (MDA-MB-468 breast) was 3.34 µM.
